From patent US20240425583A1, “METHODS AND COMPOSITIONS RELATED TO MCL-1 AND BIM HETERODIMER ANTIBODIES” (priority 2021, published 2024)

How the values were obtained:
Mcl-1:Bim complex [1] = experiment: Heterodimer to monomer ratio by flow cytometry in UKE-1 cells (FIG. 18); format: cell-based; conditions: A1155463 treated UKE-1 cells, detected with F05
Protocol: (§1) FIG. 18 is a graph showing a ratio of measured heterodimer to monomer in Bcl-xL dependent cell lines: Bcl-2:Bim, Mcl-1:Bim, and Bcl-xL:Bim. Bcl-xL:Bim shifts against Bcl-xL and Mcl-1 upon treatment. In this experiment, a shift away from the complex is detected when the sample is treated with BCLXL targeted BH3 mimetic (A1155463).

BCLXL: BIM = BCLXL: BIM (Homo sapiens, UniProt Q07817); experiment: PRIMAB intra-cellular immunofluorescent staining and flow cytometry in U266B1 cells (FIG. 19); conditions: BCLXL primed U266B1 cells, HSBXB PRIMAB
Sequence of BCLXL: BIM (Q07817 whole entry): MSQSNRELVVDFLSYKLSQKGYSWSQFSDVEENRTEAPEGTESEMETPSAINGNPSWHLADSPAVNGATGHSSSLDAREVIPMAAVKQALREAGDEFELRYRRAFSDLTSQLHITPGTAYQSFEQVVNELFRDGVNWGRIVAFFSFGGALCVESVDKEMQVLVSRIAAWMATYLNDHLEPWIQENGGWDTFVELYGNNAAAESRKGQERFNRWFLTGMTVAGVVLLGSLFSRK
Protocol: Priming complexes in leukemia cells were measured by intra-cellular immunofluorescent staining with PRIMABs and detected by flow cytometry.
Mcl-1:Bim complex [2] = experiment: Heterodimer to monomer ratio by flow cytometry in SET2 cells (FIG. 18); format: cell-based; conditions: A1155463 treated SET2 cells, detected with F05
Protocol: as §1

BCL2:BIM complex [3] = target: T1, BCL2:BIM complex (Homo sapiens, UniProt P10415); experiment: PRIMAB intra-cellular immunofluorescent staining and flow cytometry in U2932 cells (FIG. 19); format: cell-based; set-up: endogenous in cells; host or cells: U2932; conditions: BCL2 primed U2932 cells
T1 sequence (P10415 whole entry, one chain of several): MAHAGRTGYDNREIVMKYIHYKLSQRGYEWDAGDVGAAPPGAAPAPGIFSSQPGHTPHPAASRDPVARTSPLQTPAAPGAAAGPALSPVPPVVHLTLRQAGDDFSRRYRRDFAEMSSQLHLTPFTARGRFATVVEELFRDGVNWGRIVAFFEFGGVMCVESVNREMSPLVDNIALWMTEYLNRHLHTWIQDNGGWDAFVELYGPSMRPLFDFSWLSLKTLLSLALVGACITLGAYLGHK
Source text: These shifts match BH3 mimetic selectivity.

BCL2:BIM complex [4] = target: T1, BCL2:BIM complex; experiment: Flow cytometry of BH3 mimetic treated cells, heterodimer-specific vs monomer antibodies (FIG. 17); format: cell-based; set-up: endogenous in cells; conditions: detected with 2H3 (BCL2:BIM) and F05 (MCL-1:BIM)
Protocol: This shift is detected by MCL-1:BIM specific antibody (F05) relative to total MCL-1 in the cell. In this experiment, cells are treated with specific BCL2 targeted BH3 mimetic (AZD4320, Medchemexpress), fixed, permeabilized, and stained with heterodimer-specific antibodies and standard antibodies against monomers. Signals are measured on FLOW Cytometer, show relative signal and the data shown in FIG. 17 is a ratio of complex/monomer signal. FIG. 17 is a graph showing a BCL2:BIM complex specific antibody that tracts with complex disruption by a BH3 mimetic.

## CN(C)CC#Cc1ccc(OCCCc2sc(N3CCc4cccc(C(=O)Nc5nc6ccccc6s5)c4C3)nc2C(=O)O)c(F)c1 [A1155463]
Mcl-1:Bim complex [1]
  ratio of measured heterodimer to monomer: shift and “priming” to MCL1:BIM complex
BCLXL: BIM
  priming complex shift by PRIMAB readout: BCLXL: BIM shift
Mcl-1:Bim complex [2]
  ratio of measured heterodimer to monomer: shift and “priming” to MCL1:BIM complex

## CC1(C)CCC(CN2CCN(c3ccc(C(=O)NS(=O)(=O)c4ccc(NCC5CCOCC5)c([N+](=O)[O-])c4)c(Oc4cnc5[nH]ccc5c4)c3)CC2)=C(c2ccc(Cl)cc2)C1 [ABT-199]
BCL2:BIM complex [3]
  priming complex shift by PRIMAB readout: disruption of BCL2: BIM complex

## CN(CCO)CC[C@H](CSc1ccccc1)Nc1ccc(S(=O)(=O)NC(=O)c2ccc(N3CCC([C@@H](O)c4ccccc4-c4ccc(Cl)cc4)CC3)cc2)cc1S(=O)(=O)C(F)(F)F [AZD4320]
BCL2:BIM complex [4]
  ratio of complex/monomer signal: shift from the BCL2:BIM complex to the MCL-1:BIM complex
